SMILES | melting point [°C]
CCOC(=O)c1ccc(C#C[Si](C)(C)C)nc1 | 55
Cc1ccc(C(=O)S[C@@H](C)C(=O)N2CSC[C@H]2C(=O)O)cc1 | 166
CCCCCS(=O)(=O)NC(=O)c1ccc2[nH]c(C)c(Cc3ccc(SC(C)(C)C)cc3Cl)c2c1 | 185 to 188
Clc1nsnc1N1CCOCC1 | 43 to 45
COc1cc(NC(=O)OC(C)(C)C)c(N)cc1-c1cc(F)ccc1F | 144
COC1CC2CC(OC(=O)c3ccccc3)CCC2(C)C2CCC3(C)C(=C12)C(O)CC3C(C)CCCC(C)C (stereo not given) | 182 to 183
CCCCCCCCc1c(C)nc2cc(C)nn2c1O | 199
COC(=O)c1[nH]c2c(C)ccc(Cl)c2c1C(=O)OC | 173 to 174
CCP(=O)(OC)C(O)[C@H](CC1CCCCC1)NC(=O)[C@H](CC(C)C)NC(=O)[C@H](Cc1ccccc1)NC(=O)C1CCCC1 (stereo not given in full) | 155 to 165
CC1CC2=CC(=O)CCC2C2C(F)CC3(C)C(O)CCC3C12 (stereo not given) | 127
CC1COc2c(C3CC3)c(F)c(N)c3c(=O)c(C(=O)O)cn1c23 (stereo not given) | > 280
CCNC(=Nc1ccccc1N1CCOCC1)NCC | 101 to 102
O=C(O)CCCCCCCCNS(=O)(=O)c1ccccc1 | 82 to 84
COc1cccc2c1CC(NC(=O)C(C)C)CC2 (stereo not given) | 167 to 168
O=C(/C=C/c1ccc(CN2CCCC2)cc1)Nc1ccc(Br)cc1 | 184 to 186
O=C(CCl)NCc1ccc2ccn(C3CCN(CCc4ccc(F)cc4)CC3)c2c1 | 143 to 144
CCCCCCC1CC(=O)C=C(N)C1 (stereo not given) | 113
Nc1cc(CS(=O)(=O)CCO)ccc1CS(=O)(=O)CCO | 196 to 198
COc1ccc(C2=CCN(Cc3c[nH]c4ncccc34)CC2)cc1 | 202 to 204

SMILES | melting point [°C]
COc1c(O)cc(F)cc1-c1c(Cl)cccc1Cl | 65 to 67
Cn1nc([N+](=O)[O-])nc1Br | 90.5 to 91.5
OCc1ncc2n1CCC2 | 110 to 120
COc1cccc(NC(=O)C(C)(C)C)c1 | 126
COC(=O)c1cnc(COC(=O)C(C)(C)Oc2ccc(Cl)cc2)s1 | 80
CCCCCCCCCCCCCCOCC(C)(O)CNCCO (stereo not given) | 49.1 to 50.2
CCCNC(=O)C1(CCCc2ccccc2N2Cc3ccccc3C2=O)c2ccccc2-c2ccccc21 | 122 to 125
O=c1c2cc3nnn(C4CC4)c(=O)c3cc2ncn1CCn1ncnn1 | 194 to 195
CSc1cc(Cl)ccc1C(=O)CC#N | 139 to 141
Cc1cnc(CCCC#N)c(N)c1 | 84 to 87
OCCOCn1cc(I)c2c(Cl)ncnc21 | 154 to 155
O=C(O)c1ccc(OCC(O)CO)cc1O (stereo not given) | 151 to 153
COc1cc(CCCN2CCc3cc(OC)c(OC)cc3C2)ccc1NC(=O)c1cccc2c(=O)c3cccc(OC)c3[nH]c12 | 188
N#CC(C(=O)NC1CCC1)C(=O)C1CC1 (stereo not given) | 110 to 111
Cc1cc(C)cc(Sc2c(C)c[nH]c(=O)c2N)c1 | 208 to 210
NCC1CCCN(c2c(F)cc3c(=O)c(C(=O)O)cn(C4CC4)c3c2F)C1 (stereo not given) | 242 to 243
NC(=O)c1cc([N+](=O)[O-])c(Cl)cc1N1CC1 | 155
COc1ccc(C(=O)Nc2cc(NC(=O)c3cccc(N(C)C)c3)ccc2Br)cc1OC | 184

Second part, the compound after the results:

melting point [°C] | SMILES
186 | Cc1ccc(NC(=O)OCC(C)C)cc1Nc1ncc(-c2cccnc2)o1
157 to 163 | Cc1cccc(NC(=O)NC2N=C(C3CCCCC3)c3ccccc3N(Cc3ccccn3)C2=O)c1 (stereo not given)
124 to 125 | CCOP(=O)(/C=C/c1nc(-c2ccccc2)oc1COc1ccc(OCc2nc(-c3ccccc3)oc2C)cc1)OCC
157 to 158 | COc1ccc(-c2cc(Br)c3cc(OC)ccc3n2)cc1
57 to 59 | O=c1occ(CSc2ccc(F)cc2)o1
99 to 101 | COC(=O)COc1ccc(C(=O)CBr)c2ccccc12
201 to 204 | N#Cc1nc(-c2ccccc2)c(-c2ccccc2)nc1Cl
136 to 137 | CO[C@H]1O[C@@H](C)[C@H]2[C@@H]1C[C@H]1CCCC[C@@H]1[C@H]2CS(=O)(=O)c1ccccc1
57 to 59 | CCOC(=O)C1=Cc2cccc(C(F)(F)F)c2OCC1
79 to 81 | CCOc1cccc(-c2ccc(C3=CCN(S(=O)(=O)CC(=O)OC)CC3)cc2C)c1
111 to 114 | CN(C)Cc1c[nH]c2c(C(=O)c3ccccc3)cccc12
127 to 129 | FC(F)(F)c1ccc2nc(-c3ccccc3)oc2n1
128 to 131 | O=C(CC(=O)C(F)(F)F)Nc1cc(-c2ccccc2Br)n[nH]1
125 to 128 | CNc1cc(CC(C)C)ccc1-c1ccccc1S(=O)(=O)Nc1onc(C)c1C
177 to 178 | COc1ccc(-c2nc(Br)c(C(F)(F)F)[nH]2)cc1
161 to 162 | O=C(c1ccc(F)cc1)c1ccc2n1CCCC2C(=O)O (stereo not given)
130 to 131 | O=C1c2ccccc2C(=O)N1OCc1cccs1
78 to 81 | CCCSCC(=O)NNC(=O)N1Cc2ccccc2Oc2ccc(Cl)cc21
230 to 232 | N#CC(C(=O)c1ccncc1)c1ccc(F)cc1 (stereo not given)

melting point [°C] | SMILES
107 to 109 | Oc1cc(OCc2ccccc2)cc(OCc2ccccc2)c1
148 to 150 | COc1ccc(-n2nc3c(cc2=O)CCSc2sc(Br)cc2-3)cc1
140 | Cc1c2c(nc3ccccc13)CCN(C(=N)N)CC2
110 to 118 | CCCCCCCCCCCCc1cn(C(C(=O)O)c2ccccc2)cn1 (stereo not given)
> 300 | CN(C)c1ccc(-c2[nH]nc3c2C(=O)c2c(NC(=O)CN4CCOCC4)cccc2-3)cc1
195 to 197 | O=C(Nc1cc2c(cc1C(=O)c1ccccc1)OCO2)c1ccccc1
200 to 201 | COc1cc(Cl)nn2c(-c3ccnc(N)c3)c(-c3ccc(F)c(C)c3)nc12
234 | Cc1cc(Nc2nc(-c3ccccc3)nc3ncccc23)[nH]n1
193 | CN(Cc1ccccc1)c1cc(C(=O)O)ccc1C(N)C(=O)O (stereo not given)
177 to 179 | Cc1ccc(CC2CCN(CCS(=O)c3ccc4[nH]c(=O)oc4c3)CC2)cc1 (stereo not given)
120 | C#CCN1CCCc2ccc(OC(=O)Nc3c(C)cccc3C(C)C)cc21
214 to 216 | CC(C)c1nnc2c3ccc(Cl)cc3c(-c3ccccc3)nn12
133 to 135 | Nc1c(Cl)cc(CC(=O)c2ccccc2)c2c1OCCO2
110 to 116 | Cc1cccc(-c2[nH]c(C(C)C)nc2-c2cccc(-c3ccc(S(=O)(=O)N4CCN(C)CC4)cc3)c2)n1
118 to 119 | ClCc1ccc(OCc2ccc3ccccc3n2)nc1
125 to 126 | CC(C)(C)C(=O)OC1=CC(=O)C(=O)c2ccccc21
124 to 125 | COc1ccccc1COc1ccc(S(=O)(=O)c2ccc(C)nc2Nc2ccc(OC(F)F)cc2Cl)cc1
96 to 98 | CCCCCCCC(=O)N(C)Cc1cccc(-c2ccc(C=CC(=O)O)o2)c1
124 to 127 | CCCCc1nc2cccc(C#N)c2n1Cc1ccccc1Cl

— a melting point compilation (Tetko et al.; mined from patent text by program, amines drawn as free bases though some values may be those of a salt)
